{"source": "patent US20250257383A1", "about": "“MATERIAL DETECTION METHOD USING AMINOACYLASE” (JOSHO GAKUEN EDUCATIONAL FOUNDATION, priority 2021, published 2025)", "data": [{"system": "aminoacylase PH1043", "assay": "Same detection method using aminoacylase PH1043 (Comparative Example 1)", "type": "biochemical, Pyrococcus horikoshii", "details": "aminoacylase PH1043 instead of amidohydrolase; specimens 5, 10, 20 mM in saline; 37° C.; FIG. 4", "protocol": "The absorbance of each specimen was measured in the same manner as in Example, except for using hitherto known aminoacylase PH1043 instead of the amidohydrolase used in Example. The concentration of hippuric acid or methylhippuric acid in each examination specimen was calculated from the measured absorbance and plotted on a graph. The abscissa, ordinate, and symbols in FIG. 4 are the same as those in FIG. 3.\nThe aminoacylase PH1043 used in Comparative Example 1 is one produced by Nipro Corporation. The aminoacylase PH1043 will not be described in detail as it is a hitherto known enzyme described, for example, in the following literatures: Imai Satsuki, Nagoshi Kentaro, Shinki Shota, Baba Toshiaki, Nishiya Yoshiaki, “Functional Modification of Pyrococcus horikoshii-Derived Hippurate Hydrolase”, The Society for Biotechnology, Japan (2018) (Reference Literature 7); Imai Satsuki, Nagoshi Kentaro, Shinki Shota, Baba Toshiaki, Nishiya Yoshiaki, “Development of Method and Enzyme for Enzymatic Assay of Hippuric Acid”, The Society of Analytical Bio-Science (2019) (Reference Literature 8); Imai Satsuki, Nagoshi Kentaro, Shinki Shota, Baba Toshiaki, Nishiya Yoshiaki, “Functional Improvement of Hippurate Hydrolase”, Japan Society for Bioscience, Biotechnology and Agrochemistry (2019) (Reference Literature 9); Imai Satsuki, Nagoshi Kentaro, Shinki Shota, Baba Toshiaki, Nishiya Yoshiaki, “Functional Improvement of Hippurate Hydrolase toward Practical Use”, The Molecular Biology Society of Japan (2019) (Reference Literature 10); Imai Satsuki, Nagoshi Kentaro, Shinki Shota, Baba Toshiaki, Nishiya Yoshiaki, “Development of Enzymatic Assay Method for Determining Total Exposure to Toluene and Xylene (1)”, The Society of Analytical Bio-Science (2020) (Reference Literature 11); and Suginaka Muneyuki, Torii Gento, Imai Satsuki, Baba Toshiaki, Nishiya Yoshiaki, “Development of Enzymatic Assay Method for Determining Total Exposure to Toluene and Xylene (2)”, The Molecular Biology Society of Japan (2020) (Reference Literature 12). The contents of Reference Literatures 7 to 12 are incorporated herein by reference.", "values": [{"smiles": "O=C(O)CNC(=O)c1ccccc1", "note": "[hippuric acid, benzoylaminoacetic acid]", "agreement of measured concentration with actual concentration in the specimen (hydrolysis by the enzyme)": "agreed well with the actual concentrations"}, {"smiles": "Cc1ccccc1C(=O)NCC(=O)O", "note": "[2-methylhippuric acid, (2-methylbenzoylamino)acetic acid]", "agreement of measured concentration with actual concentration in the specimen (hydrolysis by the enzyme)": "not much different from the measured concentration obtained for the negative control"}, {"smiles": "Cc1ccc(C(=O)NCC(=O)O)cc1", "note": "[4-methylhippuric acid]", "agreement of measured concentration with actual concentration in the specimen (hydrolysis by the enzyme)": "agreed well with the actual concentrations"}, {"smiles": "Cc1cccc(C(=O)NCC(=O)O)c1", "note": "[3-methylhippuric acid]", "agreement of measured concentration with actual concentration in the specimen (hydrolysis by the enzyme)": "agreed well with the actual concentrations"}]}, {"system": "hippurate hydrolase (EC 3.5.1.32)", "assay": "Same detection method using hippurate hydrolase (Comparative Example 2)", "type": "biochemical", "details": "hippurate hydrolase instead of amidohydrolase; specimens 5, 10, 20 mM in saline; 37° C.; FIG. 5", "protocol": "The absorbance of each specimen was measured in the same manner as in Example, except for using a hitherto known hippurate hydrolase (EC 3.5.1.32, manufactured by Nipro Corporation) instead of the amidohydrolase used in Example. The concentration of hippuric acid or methylhippuric acid in each examination specimen was calculated from the measured absorbance and plotted on a graph. The abscissa, ordinate, and symbols in FIG. 5 are the same as those in FIG. 3 or 4.", "values": [{"smiles": "O=C(O)CNC(=O)c1ccccc1", "note": "[hippuric acid, benzoylaminoacetic acid]", "agreement of measured concentration with actual concentration in the specimen (hydrolysis by the enzyme)": "agreed well with the actual concentrations"}, {"smiles": "Cc1ccccc1C(=O)NCC(=O)O", "note": "[2-methylhippuric acid, (2-methylbenzoylamino)acetic acid]", "agreement of measured concentration with actual concentration in the specimen (hydrolysis by the enzyme)": "not much different from the measured concentration obtained for the negative control"}, {"smiles": "Cc1ccc(C(=O)NCC(=O)O)cc1", "note": "[4-methylhippuric acid]", "agreement of measured concentration with actual concentration in the specimen (hydrolysis by the enzyme)": "agreed well with the actual concentrations"}, {"smiles": "Cc1cccc(C(=O)NCC(=O)O)c1", "note": "[3-methylhippuric acid]", "agreement of measured concentration with actual concentration in the specimen (hydrolysis by the enzyme)": "agreed well with the actual concentrations"}]}, {"system": "amidohydrolase 4ewt (amino acid sequence of SEQ ID NO: 1, SACOL0085)", "assay": "Enzymatic detection of hippuric acid or methylhippuric acid by hydrolysis with amidohydrolase 4ewt and glycine oxidase/Trinder absorbance measurement (Example)", "type": "biochemical, Staphylococcus aureus COL", "details": "amidohydrolase 4ewt 30 units/mL; specimens 5, 10, 20 mM in saline; 37° C.; Tris buffer pH 8.5; absorbance 545 nm; FIG. 3", "protocol": "A first reagent R1 was prepared which contained 30 units/mL of amidohydrolase 4ewt, 7.5 units/mL of peroxidase, 4.5 mM of N-ethyl-N-(2-hydroxy-3-sulfopropyl)-3-methoxyaniline (TOOS), and 50 mM of Tris buffer (pH 8.5), and a second reagent R2 was prepared which contained 5 units/mL of glycine oxidase, 1.2 mM of 4-aminoantipyrine, and 100 mM of Tris buffer (pH 8.5).\nSpecimen Groups 1 to 4 and Specimen 0 were prepared as measurement samples, i.e., examination specimens.\nEach of the examination specimens was diluted to five times by means of an automatic analyzer to prepare a diluted specimen solution. A volume of 60 μL of the first reagent R1 was added and mixed with 2 μL of the diluted specimen solution, and the reaction was allowed to proceed well at 37° C. After that, 20 μL of the second reagent R2 was further added and mixed with the reaction mixture, and the reaction was allowed to proceed well at 37° C. The absorbance of the resulting specimen solution was measured using an automatic analyzer, manufactured by JEOL Ltd. under the trade name JCA-BM 6050, at a primary wavelength of 545 nm and a secondary wavelength of 805 nm. The concentration of hippuric acid or methylhippuric acid in each examination specimen was calculated from the measured absorbance and plotted on a graph.\nIn FIG. 3, the abscissa represents known concentrations (unit: mM) of hippuric acid or methylhippuric acid in the examination specimens and the ordinate represents measured concentrations (unit: mM) obtained by the automatic analyzer. In FIG. 3, the diamond symbols represent the specimens of Specimen Group 1, namely the examination specimens containing hippuric acid, the square symbols represent the specimens of Specimen Group 2, namely the examination specimens containing 2-methylhippuric acid, the triangle symbols represent the specimens of Specimen Group 3, namely the examination specimens containing 3-methylhippuric acid, and the x symbols represent the specimens of Specimen Group 4, namely the examination specimens containing 4-methylhippuric acid. The examination specimen for which the known concentration is 0 mM is Specimen 0, which is represented by using all of the symbols representing Specimen Groups 1 to 4 since, as previously stated, Specimen 0 was used as a negative control in measurement for the Specimen Groups 1 to 4.\nThe amidohydrolase 4ewt used in Example was produced using a gene chemically synthesized by converting the amino acid sequence of SEQ ID NO: 1 to a base sequence. […]", "values": [{"smiles": "O=C(O)CNC(=O)c1ccccc1", "note": "[hippuric acid, benzoylaminoacetic acid]", "agreement of measured concentration with known concentration in the specimen (hydrolysis by the enzyme)": "agree well with each other"}, {"smiles": "Cc1ccccc1C(=O)NCC(=O)O", "note": "[2-methylhippuric acid, (2-methylbenzoylamino)acetic acid]", "agreement of measured concentration with known concentration in the specimen (hydrolysis by the enzyme)": "agree well with each other"}, {"smiles": "Cc1ccc(C(=O)NCC(=O)O)cc1", "note": "[4-methylhippuric acid]", "agreement of measured concentration with known concentration in the specimen (hydrolysis by the enzyme)": "agree well with each other"}, {"smiles": "Cc1cccc(C(=O)NCC(=O)O)c1", "note": "[3-methylhippuric acid]", "agreement of measured concentration with known concentration in the specimen (hydrolysis by the enzyme)": "agree well with each other"}]}]}
